Here are results for 6 compounds from patent US5559129A, “Indole derivatives” (priority 1995, dated 1996).

Data set [1] relates to carotid vascular resistance. To be noted: anaesthetized dog; cited from earlier work.
The subject of data set [2] is plasma protein extravasation response within the dura mater. Put plainly: Inhibition of plasma protein extravasation within the dura mater following unilateral electrical trigeminal ganglion stimulation. It is filed as in vivo, guinea pig. The conditions noted are these: for minimal effective dose: Cavia porcellus, iv, i.v. in guinea pigs, read-out: M.E.D. (minimally effective dose) for inhibition of plasma protein extravasation. The protocol: The active compounds of the present invention are also evaluated via the inhibition of plasma protein extravasation response within the dura mater of guinea pigs following unilateral electrical trigeminal ganglion stimulation. The extent to which they mimic sumatriptan, in terms of both potency and efficacy, is determined in this assay. The procedure is performed on male Hartley guinea pigs (200-250 g, Charles River Laboratories, Wilmington, Mass., U.S.A.) as described in Markowitz et al., J. Neurosci., 7 (12), 4129-4136 (1987) and also in Lee, et al., Brain Reseach, 626, 303-305 (1993). The procedure briefly consists of placing pentobarbitone-anesthetized animals in a stereotaxic frame. ^125 I-BSA (bovine serum albumin) (50 μCi/kg^-1) is first injected into the femoral vein, followed 5 minutes later by drug or vehicle. Bipolar electrodes are then lowered into the trigeminal ganglia, and the right ganglion is stimulated for 5 minutes (1.2 mA, 5 Hz, 5 msec). The animal is then perfused with saline through the left cardiac ventricle and sacrificed, and the dura mater is dissected, weighed, and counted for radioactivity. Cpm/mg wet weight values are determined for the right vs left dura mater, and a ratio for the stimulated vs unstimulated sides is generated for each animal. Unpaired student's t-test is used to statistically compare these ratio values in respective groups treated with vehicle or drug.

The nature of data set [3]: Solid-state and solubility properties of the α-form of the hydrobromide salt. To be noted: crystalline α-form of the hydrobromide salt. It is filed as physicochemical.
Data set [4] concerns dog isolated saphenous vein strip. To be noted: antagonist of the vein strip contraction; cited from earlier work.

For the compound `CNS(=O)(=O)Cc1ccc2[nH]cc(CCN(C)C)c2c1` [Sumatriptan], in data set [1], the “increase in carotid vascular resistance” value was “selective increase in carotid vascular resistance”.
With `CNS(=O)(=O)Cc1ccc2[nH]cc(C[C@H]3CCCN3)c2c1` [Example 6A, (R)-5-(Methylaminosulfonylmethyl)-3-(pyrrolidin-2-ylmethyl)-1H-indole], the minimal effective dose in data set [2] is 1e-07 µmol/kg.
On to `CNS(=O)(=O)Cc1ccc2[nH]cc(C[C@H]3CCCN3C)c2c1` [Example 5A, (R)-5-(Methylaminosulfonylmethyl)-3-(N-methylpyrrolidin-2-ylmethyl)-1H-indole], for which the minimal effective dose in data set [2] stood at 1e-06 µmol/kg.
As to `Br.CN1CCC[C@@H]1Cc1c[nH]c2ccc(CCS(=O)(=O)c3ccccc3)cc12` [α-form, (R)-5-(2-phenylsulphonylethyl)-3-(N-methylpyrrolidin-2-ylmethyl)-1H-indole hydrobromide], in data set [3], the hygroscopicity entry is “non-hygroscopic”; the solid-state stability result is recorded as “possesses solid-state stability”; the “solubility and dissolution behavior” value is “acceptable solubility and dissolution behavior”.
`CN1C[C@H](CNC(=O)OCc2ccccc2)C[C@@H]2c3cccc4c3c(cn4C)C[C@H]21` [metergoline, reference compound]: the “block of the effect of the drugs by a known serotonin antagonist” value in data set [2] (antagonist of the inhibition of plasma protein extravasation) was “partially blocked”.
On to `CSc1ccc2c(c1)C(N1CCN(C)CC1)Cc1ccccc1S2` (centres unmarked) [methiothepin], for which the “block of the contractile effect by a known serotonin antagonist” value in data set [4] is “blocked”.
